In patent US8993514B1 (The Florida State University Research Foundation, Inc., priority 2011, dated 2015):
“And” between values parts separate entries of the source, which are not always exact repeats. Identical values can stand only once. Like-named read-outs stand apart in the source and are kept apart here.

Assays:
[1] = assay type: binding; conditions: for hemin binding indicated by decrease of fluorescence intensity as hemin is added: pH 7.4; for estimated number of hemin molecules bound to the respective peptide: 25° C.
[2] = assay type: binding; conditions: 1% DMSO
[3] = system: brain edema after traumatic brain injury; conditions: in vivo, 8 mg/kg
[4] = system: cultured neurons and astrocytes; conditions: cited from earlier work

Substance	hemin binding indicated by decrease of fluorescence intensity as hemin is added [1]	estimated number of hemin molecules bound to the respective peptide ([1]; pH = 5.0)	estimated number of hemin molecules bound to the respective peptide ([1]; pH = 7.4)	hemin binding indicated by SPR response increasing with hemin concentration [2]	% water content of brain tissue from impacted region, individual rat [3]	% water content of brain tissue from impacted region, average ([3]; rat) [%]	effect on brain swelling ([3]; rat)	hemin concentration sufficient to kill 60%-70% of cultured neurons and astrocytes [4] [µM]
GQPHGGGWGQPHGGGWGQPHGGGWGQPHGGGWGQGGG (Synthetically generated peptide) [SEQ ID NO: 6, 4-repeat peptide of the octarepeat region with additional flanking residues]	hemin forms a chemical bond	4.0	2.0	hemin binds to the respective peptide	–	–	–	–
PHGGGWGQPHGGGWGQ [SEQ ID NO: 3]	hemin forms a chemical bond	–	–	–	80.93% and 77.24% and 80.98%	79.72	reduced the brain swelling	–
hemin	–	–	–	–	–	–	–	3 to 30
